Data reported in article PMC3226707 (Journal of molecular biology, 2011).
Where no end group is shown, it is not given here.

How the values were obtained:
Act-EF34 = details: binding to Act-EF34; cited from earlier work
[1] = molecular target: Act-EF34 (C-terminal EF hand domain of α-actinin, actinin-2 residues 823–894) (Homo sapiens, UniProt P35609); assay: Isothermal titration calorimetry of palladin peptides with Act-EF34; format: binding; details: for ΔH / ΔG / stoichiometry of binding: ITC; for ΔH / ΔG: 27 °C; for ΔH: one-binding site model; for ΔG: calculated using standard thermodynamic equations; for stoichiometry of binding: Act-EF34 titrations
palladin peptide WT = molecular target: T1, palladin peptide WT (Homo sapiens); assay: ITC
T1 chain: Ac-HGQTPAAFLSALLPSQP

In the case of AETAANRICKVLAVNQE [Actinin N-term], the Kd (Act-EF34) is given as 0.568 ± 0.27 µM.

For AVATVVAAVDMARVRE [Titin Zr1], the Kd (Act-EF34) is given as 0.2 to 0.3 µM.

In the case of AVATVVAAVDQARVRE [Titin Zr7], the Kd (Act-EF34) is listed as 0.1 to 0.25 µM.

Work on Ac-HGQTPAAFLSALLPSQP [Palladin (WT)] yielded a Kd [1] of 15.7 ± 7.7 µM, a ΔH [1] of -4.5 ± 0.2 kcal/mol and a ΔG [1] of −6.6 kcal/mol*K. The stoichiometry of binding [1] was roughly 1.

In the case of Ac-HGQTSAAFLSALLPSQP [Palladin (FX)], the Kd [1] is reported as 19.5 ± 4 µM, the ΔH [1] is reported as -6.0 ± 0.2 kcal/mol and the ΔG [1] is reported as −6.5 kcal/mol*K. For the same molecule, the stoichiometry of binding [1] was roughly 1.

In the case of FVPKVVISAAKAKEQE [Titin Zr3], the Kd (Act-EF34) is listed as greater than 4 µM.

B1: Act-EF34 (alpha-actinin-2) 823-894 (protein)
chain: ADTDTAEQVIASFRILASDKPYILAEELRRELPPDQAQYCIKRMPAYSGPGSVPGALDYAAFSSALYGESDL
B1 showed a Kd (palladin peptide WT) of 15.7 µM.
